# Assays:
# [1] = molecular target: T1, P. aeruginosa LpxC (Pseudomonas aeruginosa, UniProt P47205); experiment: P. aeruginosa LpxC Inhibition Assay (LC-MS/MS); assay type: biochemical; conditions: 1 nM P. aeruginosa LpxC, 30 min pre-incubation, 2 μM UDP-3-O-(R-3-hydroxydecanoyl)-GlcNAc, pH 7.5
# T1 construct: made in house
# T1 sequence (P47205 1-303): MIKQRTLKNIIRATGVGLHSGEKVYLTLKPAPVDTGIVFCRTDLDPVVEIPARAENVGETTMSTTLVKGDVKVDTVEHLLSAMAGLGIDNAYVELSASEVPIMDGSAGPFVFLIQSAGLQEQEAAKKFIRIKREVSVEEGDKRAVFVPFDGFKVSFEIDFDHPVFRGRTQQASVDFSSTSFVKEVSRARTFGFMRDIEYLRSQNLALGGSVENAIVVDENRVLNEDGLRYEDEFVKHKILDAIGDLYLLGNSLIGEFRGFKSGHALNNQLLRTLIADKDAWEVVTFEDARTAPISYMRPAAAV
# Procedure, shortened: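 Compounds were pre-incubated 30 min at room temperature with 1 nM LpxC, then 2 μM UDP-3-O-(R-3-hydroxydecanoyl)-GlcNAc was added in 50 mM sodium phosphate pH 7.5, 0.005% Triton X-100 for 20 min. After acetic acid quench, product was quantified by LC-MS/MS against a calibration curve. IC50 came from a four-parameter logistic fit.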
# [2] = test system: P. A. PAO1 NB52019; experiment: MIC, broth microdilution (CLSI); assay type: cell-based, Pseudomonas aeruginosa; conditions: Pseudomonas aeruginosa, PAO1; broth microdilution, 35° C., 20 hours; read-out: P. A. PAO1 NB52019 MIC
# Procedure, shortened: (§1)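 CLSI broth microdilution in cation-adjusted Mueller-Hinton broth, about 5×10^5 CFU/mL inoculum, 1% DMSO final, 20 h at 35 °C in ambient air; MIC is lowest concentration preventing visible growth, checked by OD600. For potentiation, rifampicin was included in the inoculum at a fixed sub-inhibitory level.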
# [3] = test system: E. C. ATCC 25922; experiment: MIC, broth microdilution (CLSI); assay type: cell-based, Escherichia coli; conditions: Escherichia coli, ATCC25922, 20 h, broth microdilution, 35° C., 20 hours; read-out: E. C. ATCC 25922 MIC
# Procedure, shortened: as §1
# [4] = test system: E. C. ATCC 29522; experiment: MIC in the presence of sub-inhibitory rifampicin (potentiation/synergy); assay type: cell-based, Escherichia coli; conditions: +2 μg/ml rifampicin (RIF); broth microdilution, 35° C., 20 hours
# Procedure, shortened: as §1
# [5] = test system: A. B. ATCC 19606; experiment: MIC, broth microdilution (CLSI); assay type: cell-based, Acinetobacter baumannii; conditions: Acinetobacter baumannii, ATCC19606; broth microdilution, 35° C., 20 hours; read-out: A. B. ATCC 19606 MIC
# Procedure, shortened: as §1
# [6] = test system: A. B. ATCC 19606; experiment: MIC in the presence of sub-inhibitory rifampicin (potentiation/synergy); assay type: cell-based, Acinetobacter baumannii; conditions: +2 μg/ml rifampicin (RIF); broth microdilution, 35° C., 20 hours
# Procedure, shortened: as §1
SMILES,IC50 [1],MIC [2],MIC [3],E. C. ATCC 29522 (+2 μg/ml RIF) MIC [4],MIC [5],A. B. ATCC 19606 (+2 μg/ml RIF) MIC [6]
"C[C@@](CCc1cc(/C=C(\F)C2CC2)on1)(C(=O)NO)S(C)(=O)=O [Compound 4.7, (R,Z)-4-(5-(2-cyclopropyl-2-fluorovinyl)isoxazol-3-yl)-N-hydroxy-2-methyl-2-(methylsulfonyl)butanamide]",< 1 nM,0.5 µg/mL,8 µg/mL,0.5 µg/mL,> 64 µg/mL,0.5 µg/mL
"C[C@@](CCc1cc(C2=CCCCC2)on1)(C(=O)NO)S(C)(=O)=O [Compound 4.8, (R)-4-(5-(cyclohex-1-en-1-yl)isoxazol-3-yl)-N-hydroxy-2-methyl-2-(methylsulfonyl)butanamide]",< 1 nM,0.25 µg/mL,4 µg/mL,0.5 µg/mL,> 64 µg/mL,1 µg/mL

# — patent US10029994B2, “Isoxazole hydroxamic acid compounds as LpxC inhibitors” (priority 2014, dated 2018)
